Assay results published in patent US7709475B2, “Selective inhibitors against Cdk4 and Cdk6 having aminothiazole skeleton” (Banyu Pharmaceutical Co., Ltd., priority 2004, dated 2010).

Legend:
[1] = molecular target: T1, cyclin D2-Cdk6 (Homo sapiens, UniProt Q00534); experiment: Cdk6 inhibitory action: cyclin D2-Cdk6 kinase activity; format: biochemical; settings: for K1/K6, selectivity for Cdk6 against Cdk1: IC50 of Cdk1 divided by IC50 of Cdk6; for K2/K6, selectivity for Cdk6 against Cdk2: IC50 of Cdk2 divided by IC50 of Cdk6; for K5/K6, selectivity for Cdk6 against Cdk5: IC50 of Cdk5 divided by IC50 of Cdk6; for K7/K6, selectivity for Cdk6 against Cdk7: IC50 of Cdk7 divided by IC50 of Cdk6; for K9/K6, selectivity for Cdk6 against Cdk9: IC50 of Cdk9 divided by IC50 of Cdk6; for IC50: cyclin D2-Cdk6, 50 μM ATP
T1 construct: made in house; host or cells: insect cell Sf9 (baculovirus)
T1 sequence (Q00534 whole entry): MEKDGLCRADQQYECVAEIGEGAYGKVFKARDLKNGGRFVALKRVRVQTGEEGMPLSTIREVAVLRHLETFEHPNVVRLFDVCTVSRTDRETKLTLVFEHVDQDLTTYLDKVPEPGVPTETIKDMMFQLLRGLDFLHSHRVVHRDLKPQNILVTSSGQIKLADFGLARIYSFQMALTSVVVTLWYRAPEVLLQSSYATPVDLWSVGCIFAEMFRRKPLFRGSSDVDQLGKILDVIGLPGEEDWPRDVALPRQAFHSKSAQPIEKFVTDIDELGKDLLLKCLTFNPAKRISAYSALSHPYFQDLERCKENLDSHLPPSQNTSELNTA
T1 sequence (P30279 whole entry partner): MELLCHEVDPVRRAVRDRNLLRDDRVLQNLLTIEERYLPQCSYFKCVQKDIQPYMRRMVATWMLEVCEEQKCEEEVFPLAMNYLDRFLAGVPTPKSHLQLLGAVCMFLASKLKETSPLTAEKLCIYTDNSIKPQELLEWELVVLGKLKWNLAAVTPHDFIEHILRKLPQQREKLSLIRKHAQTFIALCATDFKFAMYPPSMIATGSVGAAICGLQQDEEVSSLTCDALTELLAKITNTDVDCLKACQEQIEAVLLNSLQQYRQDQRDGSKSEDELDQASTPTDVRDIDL
Source text: (§1) In the same manner as in the case of cyclin D2-Cdk4, the cDNA of Cdk6, and the cDNA of a fusion protein of cyclin D2, an activating factor of Cdk6, and glutathione S-transferase, were integrated into a baculovirus expression vector to prepare a recombinant baculovirus. This was co-transfected into insect cell Sf9 to express an active complex of the cyclin D2/glutathione S-transferase fusion protein-Cdk6 at a high level. The cells were recovered and solubilized, then the active complex was adsorbed onto Glutathione Sepharose, and a cyclin D2-Cdk6 complex was recovered using Precision Protease and was purified by HPLC column chromatography.
For the measurement of the activity of cyclin D2-Cdk6, a synthetic peptide (Arg-Pro-Pro-Thr-Leu-Ser-Pro-Ile-Pro-His-Ile-Pro-Arg) was used as the substrate.
(§2) The reaction was performed by partially modifying the method of Kitagawa et al. [Oncogene, Vol. 7, 1067-1074 (1992)]. The volume of the reaction solution was 21.1 μL, and to the R buffer, purified cyclin D2-Cdk6, 100 μM of the substrate peptide, 50 μM of non-labeled adenosine triphosphate (ATP), and 1 μCi of [γ-33P]-labeled ATP (2000 to 4000 Ci/mmole) were added to react at 30° C. for 40 minutes. Then, 10 μL of 350 mM phosphate buffer was added to the reaction system to terminate the reaction. The substrate peptide was adsorbed onto P81 paper filter on a 96-well plate, and then washed several times with 75 mM phosphate buffer. The radioactivity of the substrate peptide was measured with a liquid scintillation counter.
(§3) Addition of the compound according to the invention to the reaction system was carried out by first preparing a dilution series of solutions of the compound in dimethylsulfoxide (DMSO), and adding 1.1 μL of the dilutions. A control was provided by adding 1.1 μL of DMSO to the reaction system.
A representative compound of the compounds according to the invention was selected, and the IC50 value of this compound for the cyclin D2-Cdk6 activity was determined.

[2] = molecular target: T2, cyclin A-Cdk2 (Homo sapiens, UniProt P24941); experiment: Cdk2 inhibitory action: cyclin A-Cdk2 kinase activity; format: biochemical; settings: cyclin A-Cdk2, 50 μM ATP
T2 construct: made in house; host or cells: insect cell Sf9 (baculovirus)
Source text: as §1, with “Cdk2,” for “Cdk6,”, “A,” for “D2,”, “A/glutathione” for “D2/glutathione”, “protein-Cdk2” for “protein-Cdk6”, “A-Cdk2” for “D2-Cdk6”
For the measurement of the activity of cyclin A-Cdk2, a synthetic peptide (Ala-Lys-Ala-Lys-Lys-Thr-Pro-Lys-Lys-Ala-Lys-Lys) was used as the substrate.
as §2, with “cyclin A-Cdk2, 0.01 mg/mL” for “cyclin D2-Cdk6, 100 μM”, “for 30” for “for 40”
as §3
A representative compound of the compounds according to the invention was selected, and the IC50 value of this compound for the cyclin A-Cdk2 activity was determined.

[3] = system: JURKAT; experiment: Inhibitory action against cell proliferation (WST-8), JURKAT; format: cell-based; settings: Homo sapiens, 72 h, Jurkat cells, 3 days culture, read-out: concentration for 50% inhibition of cell proliferation (IC50), Jurkat
Method: Clinically isolated cancer cell lines EOL-1, KU812 and JURKAT were cultured in RPMI1640 medium containing 10% fetal calf serum at 37° C. in the presence of 5% CO2 under an atmosphere of saturated steam.
The inhibitory action against cell proliferation was measured by modifying the method of Skehan et al. [J. Natl. Cancer Inst., Vo. 82, 1107-1112 (1990)] according to the method of Ishiyama et al. [Talanta, Vol. 44, 1299 (1997)]. 100 μL each of cell culture medium containing 1×10^3 live cells of EOL-1, KU812 and JURKAT, respectively, was dispensed into each well of a 96-well cell culture dish, and the cells were cultured overnight. On the next day, a dilution series of solutions in DMSO was prepared from a DMSO solution of the compound of each Example. Then, the dilution series of solutions or DMSO only as a control for no drug addition were separately added to the medium for cell culture. Finally, 100 μL each of the culture medium containing either the dilution series of solutions of the compounds or DMSO only, was added to the cells which had been cultured in a 96-well dish, and then the cells were further cultured for 3 days.
After adding 20 μL each of WST-8 (Kishida Chemical Co., Ltd.) to each well and culturing the cells for another 2 hours, the optical densities at 450 nm were measured against a reference wavelength of 650 nm, and were compared with the control group. The results obtained by determining the concentrations for 50% inhibition of cell proliferation (IC50 (nM)) of the compounds of Examples are presented in the following Table 4.

| SMILES | K1/K6, selectivity for Cdk6 against Cdk1 [1] | K2/K6, selectivity for Cdk6 against Cdk2 [1] | K5/K6, selectivity for Cdk6 against Cdk5 [1] | K7/K6, selectivity for Cdk6 against Cdk7 [1] | K9/K6, selectivity for Cdk6 against Cdk9 [1] | IC50 [1] | IC50 [2] | IC50 [3] |
| --- | --- | --- | --- | --- | --- | --- | --- | --- |
| Cc1cc(-c2cnc(Nc3cnc(CN4CCN(C)CC4)cn3)s2)nc(OC2CCCCC2)n1 [Example 1, 5-[2-(cyclohexyloxy)-6-methyl-4-pyrimidinyl]-2-[5-(4-methyl-1-piperazinyl)methyl-2-pyrazinyl]amino-1,3-thiazole] | 77 | 218 | 385 | 68 | 321 | 7.8 nM | 1700 nM | 230 nM |
| Cc1cc(-c2cnc(Nc3cnc(CN4CCC(N(C)C)C4)cn3)s2)nc(OC2CCCCC2)n1 (centres unmarked) [Example 13, 5-[2-(cyclohexyloxy)-6-methyl-4-pyrimidinyl]-2-[5-(3-dimethylamino-1-pyrrolidinyl)methyl-2-pyrazinyl]amino-1,3-thiazole] | 48 | 65 | 200 | 28 | 33 | 13 nM | 850 nM | 170 nM |
| Cc1cc(-c2cnc(Nc3cnc(CN4CCN(C)CC4)cn3)s2)nc(NC2CCCCC2)n1 [Example 55, 5-[2-(cyclohexylamino)-6-methyl-4-pyrimidinyl]-2-[5-(4-methyl-1-piperazinyl)methyl-2-pyrazinyl]amino-1,3-thiazole] | – | – | – | – | – | 5.1 nM | 1900 nM | – |
| Cc1cc(-c2cnc(Nc3cnc(CN4CCCC4)cn3)s2)nc(SC2CCCCC2)n1 [Example 93, 5-[2-(cyclohexylthio)-6-methyl-4-pyrimidinyl]-2-[5-(1-pyrrolidinyl)methyl-2-pyrazinyl]amino-1,3-thiazole] | – | – | – | – | – | 7.3 nM | 480 nM | – |
| Cc1cc(-c2cnc(Nc3cnc(CN4CCC(N(C)C)C4)cn3)s2)nc(SC2CCCCC2)n1 (centres unmarked) [Example 94, 5-[2-(cyclohexylthio)-6-methyl-4-pyrimidinyl]-2-[5-(3-dimethylamino-1-pyrrolidinyl)methyl-2-pyrazinyl]amino-1,3-thiazole] | – | – | – | – | – | 16 nM | 1700 nM | 180 nM |
| Cc1cc(-c2cnc(Nc3cnc(CNC(C)C)cn3)s2)nc(SC2CCCCC2)n1 [Example 96, 5-[2-(cyclohexylthio)-6-methyl-4-pyrimidinyl]-2-[5-(isopropylamino)methyl-2-pyrazinyl]amino-1,3-thiazole] | – | – | – | – | – | 9.3 nM | 600 nM | 140 nM |
| Cc1cc(-c2cnc(Nc3cnc(CNCCO)cn3)s2)nc(SC2CCCCC2)n1 [Example 99, 5-[2-(cyclohexylthio)-6-methyl-4-pyrimidinyl]-2-[5-(2-hydroxyethylamino)methyl-2-pyrazinyl]amino-1,3-thiazole] | – | – | – | – | – | – | – | 190 nM |
| Cc1cc(-c2cnc(Nc3cnc(CN4CCN(C)CC4)cn3)s2)nc(Sc2ccccc2Cl)n1 [Example 109, 5-[2-(2-chlorophenylthio)-6-methyl-4-pyrimidinyl]-2-[5-(4-methyl-1-piperazinyl)methyl-2-pyrazinyl]amino-1,3-thiazole] | – | – | – | – | – | 18 nM | 1000 nM | 110 nM |
| CC(=O)N1CCN(Cc2ccc(Nc3ncc(-c4cc(C)nc(OC5CCCCC5)n4)s3)nc2)CC1 [Example 125, 5-[2-(cyclohexyloxy)-6-methyl-4-pyrimidinyl]-2-[5-(4-acetyl-1-piperazinyl)methyl-2-pyridyl]amino-1,3-thiazole] | – | – | – | – | – | 17 nM | 1600 nM | 260 nM |
| Cc1cc(-c2cnc(Nc3ccc(CN4CCC[C@H]4CO)cn3)s2)nc(NC2CCCCC2)n1 [Example 137, (2S)-5-[2-(cyclohexylamino)-6-methyl-4-pyrimidinyl]-2-[5-(2-hydroxymethyl-1-pyrrolidinyl)methyl-2-pyridyl]amino-1,3-thiazole] | 57 | 214 | 143 | 57 | 52 | 21 nM | 4500 nM | 250 nM |
